≈ marks a conversion by molar mass, not a printed value.
How the values were obtained:
[1] = tested on: Mycobacterium tuberculosis variant bovis; assay: Antimycobacterial activity against Mycobacterium bovis BCG assessed as reduction in microbial growth incubated for 7 days by resazurin dye based assay; format: functional; settings: 168 h, time 7 day
[2] = tested on: Mycobacterium tuberculosis variant bovis; assay: Bactericidal activity against Mycobacterium bovis BCG assessed as inhibition of bacterial growth incubated for 7 days by resazurin dye based assay; format: functional; settings: 168 h, time 7 day

Structure (SMILES) | MIC99 [1] [µM] | MBC [2] [µM]
Brc1ccccc1CN1[C@H](CN2CCCC2)C[C@@H]1c1ccccc1 (racemic) | 65 | –
Clc1cc(Cl)cc([C@H]2C[C@@H](CN3CCCC3)N2Cc2ccccc2Br)c1 (racemic) | 11 | –
COCCNC[C@@H]1C[C@H](c2ccc(OC(F)(F)F)cc2)N1Cc1ccccc1OC(F)(F)F (racemic) | 30 | –
C#CCNC[C@@H]1C[C@H](c2cc(Br)cc(Br)c2)N1Cc1ccccc1Br (racemic) | 54 | –
CC(C)NC[C@@H]1C[C@H](c2ccccc2)N1Cc1ccccc1OC(F)(F)F (racemic) | 45 | –
FC(F)(F)c1cc([C@H]2C[C@@H](CN3CCCC3)N2Cc2ccccc2Br)cc(C(F)(F)F)c1 (racemic) | 22 | 12 (≈ 6.26 µg/mL)
CN(C)C[C@@H]1C[C@H](c2cc(Br)cc(Br)c2)N1Cc1ccccc1Br (racemic) | 48 | –
FC(F)(F)Oc1ccc([C@H]2C[C@@H](CN3CCCC3)N2Cc2ccccc2OC(F)(F)F)cc1 (racemic) | – | 12 (≈ 5.69 µg/mL)
COc1ccc([C@H]2C[C@@H](CN3CCCC3)N2Cc2ccccc2Br)cc1 (racemic) | 42.6 | –
CC(C)NC[C@@H]1C[C@H](c2ccc(OC(F)(F)F)cc2)N1Cc1ccccc1OC(F)(F)F (racemic) | 26 | –
FC(F)(F)c1ccc(C2CCN(C[C@@H]3C[C@H](c4ccccc4)N3Cc3ccccc3Br)CC2)cc1 (racemic) | 60 | –
CC(C)NC[C@@H]1C[C@H](c2ccc(OC(F)(F)F)cc2)N1Cc1ccccc1Br (racemic) | 24 | –
CC(C)NC[C@@H]1C[C@H](c2ccccc2)N1Cc1ccccc1Br (racemic) | 51 | –
FC(F)(F)Oc1ccc(C2CCN(C[C@@H]3C[C@H](c4ccccc4)N3Cc3ccccc3Br)CC2)cc1 (racemic) | 56 | –
